Measurements taken from the NIST ThermoML archive (doi:10.1021/je200434a).

Conditions: 101.33 kPa, Liquid; for viscosity: Concentric cylinders viscometry; for mass density: Vibrating tube method

CCCCCCCCOS(=O)(=O)[O-].CCn1cc[n+](C)c1 [1-ethyl-3-methylimidazolium octyl sulfate]
Conditions | mass density [kg/m3] | viscosity [mPa·s]
283.15 K | – | 1879
288.15 K | – | 1252.1
293.15 K | 1098.76 | 856
294.15 K | 1098.1 | –
295.15 K | 1097.43 | –
296.15 K | 1096.77 | –
297.15 K | 1096.31 | –
298.15 K | 1095.65 | 601.6
299.15 K | 1094.99 | –
300.15 K | 1094.32 | –
301.15 K | 1093.65 | –
302.15 K | 1092.99 | –
303.15 K | 1092.32 | 433.6
304.15 K | 1091.66 | –
305.15 K | 1090.99 | –
306.15 K | 1090.33 | –
307.15 K | 1089.66 | –
308.15 K | 1089 | 319.6
309.15 K | 1088.33 | –
310.15 K | 1087.67 | –
311.15 K | 1087 | –
312.15 K | 1086.34 | –
313.15 K | 1085.68 | 240.5
314.15 K | 1085.02 | –
315.15 K | 1084.36 | –
316.15 K | 1083.7 | –
317.15 K | 1083.04 | –
318.15 K | 1082.38 | 184.4
319.15 K | 1081.72 | –
320.15 K | 1081.06 | –
321.15 K | 1080.4 | –
322.15 K | 1079.75 | –
323.15 K | 1079.09 | 143.8
324.15 K | 1078.44 | –
325.15 K | 1077.78 | –
326.15 K | 1077.13 | –
327.15 K | 1076.48 | –
328.15 K | 1075.83 | 113.9
329.15 K | 1075.17 | –
330.15 K | 1074.52 | –
331.15 K | 1073.87 | –
332.15 K | 1073.23 | –
333.15 K | 1072.58 | 91.6
334.15 K | 1071.93 | –
335.15 K | 1071.29 | –
336.15 K | 1070.64 | –
337.15 K | 1070 | –
338.15 K | 1069.35 | 74.5
339.15 K | 1068.71 | –
340.15 K | 1068.07 | –
341.15 K | 1067.43 | –
342.15 K | 1066.79 | –
343.15 K | 1066.15 | 61.4
344.15 K | 1065.51 | –
345.15 K | 1064.87 | –
346.15 K | 1064.23 | –
347.15 K | 1063.6 | –
348.15 K | 1062.96 | 51.1
349.15 K | 1062.32 | –
350.15 K | 1061.69 | –
351.15 K | 1061.05 | –
352.15 K | 1060.42 | –
353.15 K | 1059.79 | 43
354.15 K | 1059.16 | –
355.15 K | 1058.53 | –
356.15 K | 1057.89 | –
357.15 K | 1057.26 | –
358.15 K | 1056.63 | 36.5
359.15 K | 1056 | –
360.15 K | 1055.37 | –
361.15 K | 1054.75 | –
362.15 K | 1054.12 | –
363.15 K | 1053.49 | 31.3
368.15 K | – | 27
373.15 K | – | 23.5

CCCCCCOS(=O)(=O)[O-].CC[n+]1ccn(C)c1 [3-ethyl-1-methyl-1H-imidazolium hexyl sulfate]
Conditions | mass density [kg/m3] | viscosity [mPa·s]
283.15 K | – | 875
288.15 K | – | 604
293.15 K | 1133.8 | 428.3
294.15 K | 1133.12 | –
295.15 K | 1132.45 | –
296.15 K | 1131.77 | –
297.15 K | 1131.09 | –
298.15 K | 1130.42 | 311.4
299.15 K | 1129.74 | –
300.15 K | 1129.07 | –
301.15 K | 1128.4 | –
302.15 K | 1127.72 | –
303.15 K | 1127.05 | 231.5
304.15 K | 1126.38 | –
305.15 K | 1125.71 | –
306.15 K | 1125.04 | –
307.15 K | 1124.37 | –
308.15 K | 1123.7 | 175.7
309.15 K | 1123.03 | –
310.15 K | 1122.36 | –
311.15 K | 1121.7 | –
312.15 K | 1121.03 | –
313.15 K | 1120.37 | 135.9
314.15 K | 1119.7 | –
315.15 K | 1119.04 | –
316.15 K | 1118.38 | –
317.15 K | 1117.72 | –
318.15 K | 1117.06 | 106.9
319.15 K | 1116.4 | –
320.15 K | 1115.74 | –
321.15 K | 1115.08 | –
322.15 K | 1114.42 | –
323.15 K | 1113.77 | 85.4
324.15 K | 1113.12 | –
325.15 K | 1112.46 | –
326.15 K | 1111.81 | –
327.15 K | 1111.16 | –
328.15 K | 1110.51 | 69.2
329.15 K | 1109.86 | –
330.15 K | 1109.21 | –
331.15 K | 1108.56 | –
332.15 K | 1107.92 | –
333.15 K | 1107.27 | 56.8
334.15 K | 1106.63 | –
335.15 K | 1105.98 | –
336.15 K | 1105.33 | –
337.15 K | 1104.69 | –
338.15 K | 1104.05 | 47.2
339.15 K | 1103.41 | –
340.15 K | 1102.77 | –
341.15 K | 1102.13 | –
342.15 K | 1101.49 | –
343.15 K | 1100.85 | 39.6
344.15 K | 1100.21 | –
345.15 K | 1099.57 | –
346.15 K | 1098.93 | –
347.15 K | 1098.3 | –
348.15 K | 1097.66 | 33.6
349.15 K | 1097.02 | –
350.15 K | 1096.39 | –
351.15 K | 1095.75 | –
352.15 K | 1095.12 | –
353.15 K | 1094.49 | 28.8
354.15 K | 1093.85 | –
355.15 K | 1093.22 | –
356.15 K | 1092.59 | –
357.15 K | 1091.95 | –
358.15 K | 1091.32 | 24.8
359.15 K | 1090.69 | –
360.15 K | 1090.06 | –
361.15 K | 1089.43 | –
362.15 K | 1088.8 | –
363.15 K | 1088.17 | 21.6
368.15 K | – | 18.9
373.15 K | – | 16.7
